Measured values reported in patent publication US7691572B2, “Method and kit for detecting resistance to antiviral drugs” (priority 1998, dated 2010).
pIC50: −log10 of the molar value. Read-outs that look alike come from different tables or passages of the source.

Tested on: HIV-1 RT
Type: biochemical
Details: for inhibition of RT activity / RT activity inhibition / Phenotype / % inhibition: 1 μM AZT-TP
Description: Four groups of archived HIV-1 specimens with known genotypes were selected for assay validation. These included WT, MNR, MNR carrying unrelated resistance mutations, and non-MNR specimens carrying classical AZT resistance mutations (Schmit et al., “Multiple drug resistance to nucleoside analogues and nonnucleoside reverse transcriptase inhibitors in an efficiently replicating human immunodeficiency virus type 1 patient strain,” J. Infect. Dis. 174: 962-968 (1996); Winters et al., “A 6-base pair insert in the reverse transcriptase gene of human immunodeficiency virus type 1 confers resistance to multiple nucleoside inhibitors,” J. Clin. Invest. 102: 1769-1775 (1998); Adje et al., “High prevalence of genotypic and phenotypic HIV-1 drug-resistant strains among patients receiving antiretroviral therapy in Abidjan, Cote d'Ivoire,” J. Acquired Immune Deficiency Syndromes 26: 501-506 (2001); Weinstock et al., “Prevalence of mutations associated with reduced antiretroviral drug susceptibility among human immunodeficiency virus type 1 seroconverters in the United States, 1993-1998,” J. Infect. Dis. 182: 330-333 (2000)). Forty-four samples were selected which comprised 7 viral stocks and 37 plasma samples obtained from 34 HIV-1-infected persons.

[1] = specimen no. 40 (T215Y and T69S-EA insertions)

`Cc1cn([C@H]2C[C@H](N=[N+]=[N-])[C@@H](COP(=O)(O)OP(=O)(O)OP(=O)(O)O)O2)c(=O)[nH]c1=O` [AZT-TP, AZT-triphosphate] was tested, and the “inhibition of RT activity” value (9 specimens containing classical AZT-resistant mutations) was 87%, the RT activity inhibition (23 specimens with MNR genotypes) was 0-62% and the RT activity inhibition (HIV-1 RTs that had more MNR-related mutations) was 0-16%. For the same compound, the “inhibition of RT activity” value (all 12 specimens with WT genotype) was 93%, the Phenotype (specimen 12) was “S” and the “% inhibition” value (specimen 12, WT) was 100%. The Phenotype (specimen 13) was “R”, the “% inhibition” value (specimen 13, S68G, Q151M) was 40% and the Phenotype (specimen 14) was “R”. For the same compound, the “% inhibition” value (specimen 14, A62A/V, S68G, V75I, F77L, F116Y, Q151M) was 6%, the Phenotype (specimen 15) was “R” and the “% inhibition” value (specimen 15, S68G, V75I, F77L, K103N, F116Y, Q151M, M184V) was 0%. For the same compound, the Phenotype (specimen 16) was “R”, the “% inhibition” value (specimen 16, Q151Q/M) was 38% and the “% inhibition” value (specimen 17, Q151M) was 23%. For the same compound, the “% inhibition” value (specimen 18, Q151M) was 57%, the Phenotype (specimen 26) was “R” and the “% inhibition” value (specimen 26, A62V, V75T, Q151M, M184I/M) was 11%. For the same compound, the “% inhibition” value (specimen 27, V75I, F77L, F116Y, Q151M) was 0%, the “% inhibition” value (specimen 28, V75I, F77L, F116Y, Q151M) was 8% and the Phenotype (specimen 29) was “R”. The “% inhibition” value (specimen 29, A62V, V75I, F77L, F116Y, Q151M, M184V) was 0%, the Phenotype (specimen 30) was “R” and the “% inhibition” value (specimen 30, K65R, K70R, V75I, F77L, F116Y, Q151M) was 13%. For the same compound, the Phenotype (specimen 31) was “R”, the “% inhibition” value (specimen 31, D67N, Q151M, M184V) was 17% and the Phenotype (specimen 32) was “R”. For the same compound, the “% inhibition” value (specimen 32, V75I, F77L, F116Y, Q151M, M184V) was 26%, the Phenotype (specimen 35) was “R” and the “% inhibition” value (specimen 35, F116Y, Q151M, T215Y, V35I, I135T) was 62%. For the same compound, the Phenotype (specimen 36) was “S”, the “% inhibition” value (specimen 36, D67N, L210W, L214F, T215Y) was 95.6% and the Phenotype (specimen 37) was “S”. For the same compound, the “% inhibition” value (specimen 37, A62V, K70R, L74V, K103N, T215F) was 92.6%, the Phenotype (specimen 38) was “S” and the Phenotype (specimen 39) was “S”. For the same compound, the “% inhibition” value (specimen 39, M41L, M184V, L214F, T215Y) was 89.1%, the Phenotype (specimen 44) was “S” and the Phenotype (specimens 1-11, WT) was “S”. For the same compound, the “% inhibition” value (specimens 1-11, recent seroconverters, WT) was 93-100%, the Phenotype (specimens 17, 18) was “R” and the Phenotype (specimens 19-21) was “R”. The “% inhibition” value (specimens 19-21, A62V, V75I, F77L, F116Y, Q151M) was 4-16%, the Phenotype (specimens 22-25) was “R” and the “% inhibition” value (specimens 22-25, A62V, S68G, V75I, F77L, F116Y, Q151M) was 0%. The Phenotype (specimens 27-28) was “R”, the Phenotype (specimens 33, 34) was “R” and the Phenotype (specimens 40-43) was “S”. The “% inhibition” value (specimens 40-43, T215Y, T69S-insertions EA/SS/SG) was 87-97%, the “IC50 compared to reference WT HIV-1 isolates” value (plasma specimen no. 25 (A62V, S68G, V75I, F77L, F116Y, Q151M)) was 44 fold and the pIC50 [1] was 6.40. For the same compound, the IC90 [1] was 1000 nM.
